Assay results as given in patent publication US20250099407A1, “2-AMINO BENZOPHENONE DERIVATIVES FOR TARGETED FERROPTOSIS INDUCTION IN CANCER THERAPY” (INDIAN INSTITUTE OF TECHNOLOGY KANPUR, priority 2023, published 2025).

Assays:
[1] = test system: Huh-7 cells; assay: Intracellular ROS, H2-DCFDA oxidation assay in Huh-7 cells; format: cell-based; settings: Huh-7, 37° C., 30 min; IITK3001 and IITK3002 20 μM, H2O2 100 μM
Description: We used fluorescence imaging-based oxidation of H2-DCFDA by ROS for assessing intracellular oxidative stress. Huh-7 cells were treated at 37° C. for 30 min with IITK3001 and IITK3002 (20 μM), H2O2 (100 μM), ^tertBuOOH (20 μM), NAC (0.5 mM) and 0.1% DMSO as control. Each experiment was conducted in more than two biological replicates with three technical replicates.
b. Effect of Thiols and Ferroptosis Modulators on the Hit Molecules' Antiproliferative Potency: Ferroptosis is directly controlled by the intracellular thiol concentrations in the form of cysteine and glutathione. Several oxidative mechanisms are well-wired in ferroptotic cell death and we set out to investigate the precise molecular mechanism of our lead molecules. Both cysteine and glutathione (GSH) are the enriched thiol-containing small molecule antioxidant system that are essential regulators of redox modulation in cells including ferroptosis. Further, the enzyme glutathione peroxidase 4 (GPX4) is well characterized to specifically quench the lipid peroxide equivalents in cells through the conversion of […] in cells thereby restoring the reduced environment in cells. Therefore, first, we assessed the ability of N-acetylcysteine (NAC) and GSH to suppress our lead molecules antiproliferative activity (FIG. 4a, b). We found a drastic reduction in the molecules' potency with IITK3001 (>1000-fold reduction) and IITK3002 (>500-fold reduction) (FIG. 14a, b). Supporting that, the addition of DL-Buthionine sulfoximine (BSO), an inhibitor of y-glutamylcysteine synthetase (glutathione biosynthesis) combination with our lead molecules potentiated the overall inhibitory capacity (FIG. 14a, b). […] Finally, we assessed the effect of Ferrostain-1 (Fer-1) and Liproxstatin-1 (Lip-1), antioxidants that function by trapping reactive radicals in cells, particularly lipid-peroxide radicals, and preventing the accumulation of lipid peroxides in cells. […] The accumulation of lipid peroxides and overall ROS was also detected using a fluorescence-based H2DCF-DA assay as depicted in FIG. 15. […]

[2] = test system: Huh-7 cells; assay: Cell viability, luminescence-based CellTiter-Glo assay, Huh-7 cells; settings: Homo sapiens, Huh-7, Huh-7 cells, cell viability; read-out: EC50 Huh-7
Description: The viability of Huh-7 cells was recorded using a luminescence-based CellTiter-Glo® assay. The screening concentration of the molecules were 10 μM with or without Fer-1 (10 μM) in DMEM media (>0.1% DMSO as control).
Ferroptosis is a unique form of cell death mechanism mediated by the accumulation of lipid peroxides in cells which is distinct from healthy cells' apoptosis, a programmed […] route. We aimed to exploit the induction of ferroptosis in cancer cells using covalent small molecules as a potential strategy for cancer therapeutic development. […] We used various amide bond formation chemistry to construct the library members and these molecules are well characterized by various spectroscopic and mass spectrometry techniques. Once confirmed, these thiol reactive library members were screened in a cancer cell viability assay in combination with ferrostatin-1 (Fer-1), a ferroptosis inhibitor as depicted in FIG. 11. […] We have screened a total of ˜50 electrophilic small molecules to prevent the proliferation of hepatocellular carcinoma (Huh-7 cells) in combination with and without Fer-1. From our initial screening, we identified haloacetamides of 2-aminoalkylbenzophenone as potential ferroptosis inducers as depicted in FIG. 11.
(§1) The viability of screened cancer cells was recorded using a luminescence-based CellTiter-Glo® assay for the ATP quantification. The screening concentration of the molecule ranged from 100/10 μM to 45/4.5 nM with an 8-point-3-fold dilution series in DMEM media (>0.1% DMSO as control). Each experiment was conducted in more than two biological replicates with three technical replicates. The error bar is a representation of standard deviation among the technical replicates.
The viability of screened cancer cells was recorded using a luminescence-based CellTiter-Glo® assay for the ATP quantification. The screening concentration of IITK3002 ranged from 10 μM to 4.5 nM with an 8-point-3-fold dilution series in DMEM media (>0.1% DMSO as control). Each experiment was conducted in more than two biological replicates with three technical replicates. The error bar is a representation of standard deviation among the technical replicates. […]
a. Electrophilic Warhead Optimization: Once we identified 2-benzoylphenyl-a-haloacetamide as the lead scaffold, we have investigated the structure-activity-relationship analysis to precisely capture the effect of various chemical handles of the scaffold and use the knowledge to improve the overall potency and selectivity of this molecule to prevent cancer cell proliferation. First, we changed the haloacetamide electrophilic unit with various other electrophiles with a characteristic high, moderate, and weak reactivity with thiols when compared to chloroacetamide. Therefore, we opted vinylsulfonamide (highly reactivity), acrylamide (moderate reactivity), and phenoxyacetamides (weak reactivity warheads) for incorporation in the place of haloacetamide warhead of the top hit scaffold. Once synthesized, these molecules were evaluated to assess their antiproliferative potency against Huh-7 cells (Table 2). As expected, the introduction of weakly reactive electrophilic warheads, phenoxyactamides, completely lost the activity against Huh-7 cells. […] Perhaps, the secondary interactions of the electrophilic warhead with the target proteins might play additional roles. Therefore, we shifted our focus to optimize the rest of the core scaffold for further SAR analysis. b. Role of N-Substitutions: Next, we synthesized the NH-derivative of haloacetamides to capture the importance of N-alkylation on the activity of our hit molecule. […] Perhaps the hydrogen bonding induced planarity around the warhead influences the molecules' weakened potency. Conversely, the additional flexibility in the lead molecule (tertiary amide) might contribute to the strong antiproliferative activity of the hit molecule. […]

[3] = test system: 22Rv1; assay: Cell viability, CellTiter-Glo assay, 22Rv1; format: cell-based; settings: Homo sapiens, 22Rv1, 22Rv1, cell viability
Description: as §1
(§2) The viability of screened cancer cells was recorded using a luminescence-based CellTiter-Glo® assay for the ATP quantification. The screening concentration of IITK3002 ranged from 10 μM to 4.5 nM with an 8-point-3-fold dilution series in DMEM media (>0.1% DMSO as control). Each experiment was conducted in more than two biological replicates with three technical replicates. The error bar is a representation of standard deviation among the technical replicates.
(§3) a. […] In parallel, we have also synthesized the bromoacetamide (IITK3002) version of the lead molecules which is slightly more reactive with thiol nucleophiles when compared to chlorooacetamide warheads as depicted in FIG. 13. […] In addition, we also evaluated the molecules' antiproliferative potency against a panel of twelve different cancer phenotypes. The set of cancer cell lines included liver, breast, colon, myeloma, bone, blood, skin, brain and prostate lineages (FIG. 2, 3, Table 1).

[4] = test system: Huh-7 cells; assay: Combination cell viability experiments with thiols, ferroptosis modulators and cell death inhibitors in Huh-7 cells; format: cell-based; settings: combination with GSH, NAC, BSO, Fer-1, deferoxamine, RSL3, FIN56, Erastin, QVD-OPh, necrostatin-1; Huh-7 and 4T1
Description: FIG. 14 depicts a combination experiment indicates the involvement of thiol modulation by IITK3001/IITK3002 on the viability of Huh-7 and 4T1 cells, in accordance with an embodiment of the present invention. The viability of screened cancer cells was recorded using a luminescence-based CellTiter-Glo® assay for the ATP quantification. The screening concentration of (a) IITK3001 and (b) IITK3002 ranged from 10 uM to 4.5 nM with an 8-point-3-fold dilution series in DMEM medium (>0.1% DMSO as control). For combination experiments, 500 μM of NAC or glutathione and 25 μM of BSO were used. Each experiment was conducted in more than two biological replicates with three technical replicates. The error bar is a representation of standard deviation among the technical replicates.
(§4) FIG. 16 depicts ferroptosis induction as a cell death mechanism is established for IITK3001 using combination experiments with ferroptosis inducers and inhibitors, in accordance with an embodiment of the present invention. The screening concentration of (a) IITK3001 and (b) IITK3002 ranged from 10 μM to 4.5 nM with an 8-point-3-fold dilution series in DMEM medium (>0.1% DMSO as control). For combination experiments, Ferrostain-1 (10 μM),Deferoxamine (3 μM), RSL3 (10 nM), FIN56 (30 nM), glutamine (0.5 mM), glutamic acid (0.5 mM), Erastin (0.5 μM) were used. Each experiment was conducted in more than two biological replicates with three technical replicates. The error bar is a representation of standard deviation among the technical replicates.
as §4, with “18” for “16”, “IITK3002” for “IITK3001”, “of” for “of (a) IITK3001 and (b)”, “μM), Deferoxamine” for “μM),Deferoxamine”
FIG. 20 depicts combining apoptosis and necroptosis inhibitors ruled out the possibility of respective cell death mechanisms upon treatment with IITK3001 or IITK3002 in Huh-7 and 4T1 cells, in accordance with an embodiment of the present invention. The screening concentration of IITK3001/IITK3002 ranged from 10 μM to 4.5 nM with an 8-point-3-fold dilution series in DMEM medium (>0.1% DMSO as control). For combination experiments, QVD-OPh and Necrsotatin-1 (10 μM) were used. Each experiment was conducted in more than two biological replicates with three technical replicates. The error bar is a representation of standard deviation among the technical replicates.
FIG. 22 depicts ferroptosis induction was established for IITK3003 using combination experiments in Huh-7 cells, in accordance with an embodiment of the present invention. The screening concentration of IITK3002 ranged from 10 uM to 4.5 nM with an 8-point-3-fold dilution series in DMEM medium (>0.1% DMSO as control). For combination experiments, Ferrostain-1 ([…]), Deferoxamine (3 μM), RSL3 (10 nM), FIN56 (30 nM), glutamine (0.5 mM), glutamic acid (0.5 mM), Erastin (0.5 μM) were used. Each experiment was conducted in more than two biological replicates with three technical replicates. The error bar is a representation of standard deviation among the technical replicates.
FIG. 24 depicts ferroptosis induction was established for IITK3004 using combination experiments in Huh-7 cells, in accordance with an embodiment of the present invention. The screening concentration of the molecules (a) IITK3001 and (b) IITK3002 ranged from 10 μM to 4.5 nM with a 8-point-3-fold dilution series. […]

[5] = test system: PC3; assay: Cell viability, CellTiter-Glo assay, PC3; format: cell-based; settings: Homo sapiens, PC-3, PC3, cell viability
Description: as §1, §2, §3

[6] = test system: U2OS; assay: Cell viability, CellTiter-Glo assay, U2OS; format: cell-based; settings: Homo sapiens
Description: as §1, §2, §3

## OO [Hydrogen peroxide, reference compound]
[1]
  intracellular ROS, H2DCF-DA fluorescence intensity: drastic enhancement in the fluorescence intensity

## C#CCN(C(=O)CBr)c1ccccc1C(=O)c1ccccc1 [IITK3004, N-(2-benzoylphenyl)-2-bromo-N-(prop-2-yn-1-yl)acetamide]
[2]
  EC50: 4.64 nM
[3]
  EC50: 120 nM
[4]
  cell death mechanism from combination experiments: exceptionally selective ferroptosis inducers
[5]
  EC50: 130 nM
[6]
  EC50: 370 nM
